# In patent publication US11077090B2, “Compounds and compositions and uses thereof” (Sunovion Pharmaceuticals Inc., priority 2016, dated 2021):
# Tested on: compound-treated mice
# Assay: Neuropharmacological assay (SmartCube): behavioral activity signature and minimal effective dose
# Assay type: in vivo
# Conditions: for minimal effective dose: Mus musculus, ip, MED = dose having 50% or more total activity, read-out: Potency: minimal effective dose (MED), binned; for AD: ADHD (probability of activity signature) / AG: analgesic (probability of activity signature) / AX: anxiolytic (probability of activity signature) / CE: cognitive enhancer (probability of activity signature) / DP: anti-depressant (probability of activity signature) / MS: mood stabilizer (probability of activity signature) / PS: anti-psychotic (probability of activity signature) / SD: sedative hypnotic (probability of activity signature) / UN: uncharacterized CNS activity (probability of activity signature): i.p. 15 min before test, most efficacious dose(s)
# Outline: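 Mice dosed i.p. 15 min before test, compound in N-methyl-2-pyrrolidone/PEG/propylene glycol, 3 doses; video-captured behavior matched to reference-drug signatures, giving per-class probabilities at most efficacious dose. MED from doses typically 0.3–30 mpk, defined as lowest dose with ≥50% total activity.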
structure (smiles),measurement,value
C[C@@H]1OCc2ccc(Cl)cc2[C@@H]1N.Cl [Example 194],minimal effective dose,3 to 10 mg/kg
same,AD: ADHD (probability of activity signature),+ (LOQ ≤ + <5%)
same,AG: analgesic (probability of activity signature),++ (5% ≤ ++ <25%)
same,AX: anxiolytic (probability of activity signature),++ (5% ≤ ++ <25%)
same,CE: cognitive enhancer (probability of activity signature),++ (5% ≤ ++ <25%)
same,DP: anti-depressant (probability of activity signature),++ (5% ≤ ++ <25%)
same,MS: mood stabilizer (probability of activity signature),+ (LOQ ≤ + <5%)
same,PS: anti-psychotic (probability of activity signature),++ (5% ≤ ++ <25%)
same,SD: sedative hypnotic (probability of activity signature),+ (LOQ ≤ + <5%)
same,UN: uncharacterized CNS activity (probability of activity signature),++++ (50% ≤ ++++)
C[C@@H]1OCc2ccc3c(c2[C@@H]1N)CCCC3.Cl [Example 196],minimal effective dose,10 to 30 mg/kg
same,AD: ADHD (probability of activity signature),+ (LOQ ≤ + <5%)
same,AG: analgesic (probability of activity signature),+ (LOQ ≤ + <5%)
same,AX: anxiolytic (probability of activity signature),++ (5% ≤ ++ <25%)
same,CE: cognitive enhancer (probability of activity signature),++ (5% ≤ ++ <25%)
same,DP: anti-depressant (probability of activity signature),+ (LOQ ≤ + <5%)
same,MS: mood stabilizer (probability of activity signature),+ (LOQ ≤ + <5%)
same,PS: anti-psychotic (probability of activity signature),++ (5% ≤ ++ <25%)
same,SD: sedative hypnotic (probability of activity signature),+ (LOQ ≤ + <5%)
same,UN: uncharacterized CNS activity (probability of activity signature),+++ (25% ≤ +++ <50%)
C[C@H]1OCc2ccc3c(c2[C@@H]1N)CCCC3.Cl [Example 197],minimal effective dose,3 to 10 mg/kg
same,AD: ADHD (probability of activity signature),+ (LOQ ≤ + <5%)
same,AG: analgesic (probability of activity signature),+ (LOQ ≤ + <5%)
same,AX: anxiolytic (probability of activity signature),++ (5% ≤ ++ <25%)
same,CE: cognitive enhancer (probability of activity signature),+ (LOQ ≤ + <5%)
same,DP: anti-depressant (probability of activity signature),+ (LOQ ≤ + <5%)
same,MS: mood stabilizer (probability of activity signature),+ (LOQ ≤ + <5%)
same,PS: anti-psychotic (probability of activity signature),+ (LOQ ≤ + <5%)
same,SD: sedative hypnotic (probability of activity signature),+ (LOQ ≤ + <5%)
same,UN: uncharacterized CNS activity (probability of activity signature),++++ (50% ≤ ++++)
Cc1ccc(Cl)c2c1[C@H](N)[C@@H](C)OC2.Cl [Example 200],minimal effective dose,3 to 10 mg/kg
same,AD: ADHD (probability of activity signature),+ (LOQ ≤ + <5%)
same,AG: analgesic (probability of activity signature),++ (5% ≤ ++ <25%)
same,AX: anxiolytic (probability of activity signature),+++ (25% ≤ +++ <50%)
same,CE: cognitive enhancer (probability of activity signature),++ (5% ≤ ++ <25%)
same,DP: anti-depressant (probability of activity signature),++ (5% ≤ ++ <25%)
same,MS: mood stabilizer (probability of activity signature),+ (LOQ ≤ + <5%)
same,PS: anti-psychotic (probability of activity signature),++ (5% ≤ ++ <25%)
same,SD: sedative hypnotic (probability of activity signature),+ (LOQ ≤ + <5%)
same,UN: uncharacterized CNS activity (probability of activity signature),++++ (50% ≤ ++++)
CC[C@@H]1OCc2ccc(F)cc2[C@@H]1N.Cl [Example 201],minimal effective dose,3 to 10 mg/kg
same,AD: ADHD (probability of activity signature),+ (LOQ ≤ + <5%)
same,AG: analgesic (probability of activity signature),+ (LOQ ≤ + <5%)
same,AX: anxiolytic (probability of activity signature),++ (5% ≤ ++ <25%)
same,CE: cognitive enhancer (probability of activity signature),++ (5% ≤ ++ <25%)
same,DP: anti-depressant (probability of activity signature),+ (LOQ ≤ + <5%)
same,MS: mood stabilizer (probability of activity signature),+ (LOQ ≤ + <5%)
same,PS: anti-psychotic (probability of activity signature),++ (5% ≤ ++ <25%)
same,SD: sedative hypnotic (probability of activity signature),+ (LOQ ≤ + <5%)
same,UN: uncharacterized CNS activity (probability of activity signature),++++ (50% ≤ ++++)
CC[C@H]1OCc2ccc(F)cc2[C@@H]1N.Cl [Example 202],minimal effective dose,< 3 mg/kg
same,AD: ADHD (probability of activity signature),+ (LOQ ≤ + <5%)
same,AG: analgesic (probability of activity signature),++ (5% ≤ ++ <25%)
same,AX: anxiolytic (probability of activity signature),+++ (25% ≤ +++ <50%)
same,CE: cognitive enhancer (probability of activity signature),++ (5% ≤ ++ <25%)
same,DP: anti-depressant (probability of activity signature),++ (5% ≤ ++ <25%)
same,MS: mood stabilizer (probability of activity signature),+ (LOQ ≤ + <5%)
same,PS: anti-psychotic (probability of activity signature),++ (5% ≤ ++ <25%)
same,SD: sedative hypnotic (probability of activity signature),+ (LOQ ≤ + <5%)
same,UN: uncharacterized CNS activity (probability of activity signature),++++ (50% ≤ ++++)
C[C@H]1OC[C@@H](N)c2cc(Cl)ccc21.Cl [Example 203],minimal effective dose,3 to 10 mg/kg
same,AD: ADHD (probability of activity signature),+ (LOQ ≤ + <5%)
same,AG: analgesic (probability of activity signature),++ (5% ≤ ++ <25%)
same,AX: anxiolytic (probability of activity signature),++ (5% ≤ ++ <25%)
same,CE: cognitive enhancer (probability of activity signature),++ (5% ≤ ++ <25%)
same,DP: anti-depressant (probability of activity signature),++ (5% ≤ ++ <25%)
same,MS: mood stabilizer (probability of activity signature),+ (LOQ ≤ + <5%)
same,PS: anti-psychotic (probability of activity signature),+++ (25% ≤ +++ <50%)
same,SD: sedative hypnotic (probability of activity signature),++ (5% ≤ ++ <25%)
same,UN: uncharacterized CNS activity (probability of activity signature),++++ (50% ≤ ++++)
C[C@@H]1OC[C@@H](N)c2cc(Cl)ccc21.Cl [Example 204],minimal effective dose,3 to 10 mg/kg
same,AD: ADHD (probability of activity signature),+ (LOQ ≤ + <5%)
same,AG: analgesic (probability of activity signature),+ (LOQ ≤ + <5%)
same,AX: anxiolytic (probability of activity signature),++ (5% ≤ ++ <25%)
same,CE: cognitive enhancer (probability of activity signature),++ (5% ≤ ++ <25%)
same,DP: anti-depressant (probability of activity signature),+ (LOQ ≤ + <5%)
same,MS: mood stabilizer (probability of activity signature),+ (LOQ ≤ + <5%)
same,PS: anti-psychotic (probability of activity signature),++ (5% ≤ ++ <25%)
same,SD: sedative hypnotic (probability of activity signature),++ (5% ≤ ++ <25%)
same,UN: uncharacterized CNS activity (probability of activity signature),++++ (50% ≤ ++++)
C[C@H]1OC[C@@H](N)c2cc(F)ccc21.Cl [Example 205],minimal effective dose,3 to 10 mg/kg
same,AD: ADHD (probability of activity signature),+ (LOQ ≤ + <5%)
same,AG: analgesic (probability of activity signature),+ (LOQ ≤ + <5%)
same,AX: anxiolytic (probability of activity signature),+++ (25% ≤ +++ <50%)
same,CE: cognitive enhancer (probability of activity signature),++ (5% ≤ ++ <25%)
same,DP: anti-depressant (probability of activity signature),++ (5% ≤ ++ <25%)
same,MS: mood stabilizer (probability of activity signature),+ (LOQ ≤ + <5%)
same,PS: anti-psychotic (probability of activity signature),++ (5% ≤ ++ <25%)
same,SD: sedative hypnotic (probability of activity signature),++ (5% ≤ ++ <25%)
same,UN: uncharacterized CNS activity (probability of activity signature),+++ (25% ≤ +++ <50%)
C[C@@H]1OC[C@@H](N)c2cc(F)ccc21.Cl [Example 206],minimal effective dose,3 to 10 mg/kg
same,AD: ADHD (probability of activity signature),+ (LOQ ≤ + <5%)
same,AG: analgesic (probability of activity signature),++ (5% ≤ ++ <25%)
same,AX: anxiolytic (probability of activity signature),++++ (50% ≤ ++++)
same,CE: cognitive enhancer (probability of activity signature),++ (5% ≤ ++ <25%)
same,DP: anti-depressant (probability of activity signature),++ (5% ≤ ++ <25%)
same,MS: mood stabilizer (probability of activity signature),+ (LOQ ≤ + <5%)
same,PS: anti-psychotic (probability of activity signature),++ (5% ≤ ++ <25%)
same,SD: sedative hypnotic (probability of activity signature),+ (LOQ ≤ + <5%)
same,UN: uncharacterized CNS activity (probability of activity signature),+++ (25% ≤ +++ <50%)
CC[C@H]1OCc2cccc(C)c2[C@@H]1N.Cl [Example 207],minimal effective dose,3 to 10 mg/kg
same,AD: ADHD (probability of activity signature),+ (LOQ ≤ + <5%)
same,AG: analgesic (probability of activity signature),++ (5% ≤ ++ <25%)
same,AX: anxiolytic (probability of activity signature),++ (5% ≤ ++ <25%)
same,CE: cognitive enhancer (probability of activity signature),++ (5% ≤ ++ <25%)
same,DP: anti-depressant (probability of activity signature),++ (5% ≤ ++ <25%)
same,MS: mood stabilizer (probability of activity signature),+ (LOQ ≤ + <5%)
same,PS: anti-psychotic (probability of activity signature),++ (5% ≤ ++ <25%)
same,SD: sedative hypnotic (probability of activity signature),+ (LOQ ≤ + <5%)
same,UN: uncharacterized CNS activity (probability of activity signature),++++ (50% ≤ ++++)
CC[C@@H]1OCc2cccc(C)c2[C@@H]1N.Cl [Example 208],minimal effective dose,3 to 10 mg/kg
same,AD: ADHD (probability of activity signature),+ (LOQ ≤ + <5%)
same,AG: analgesic (probability of activity signature),+ (LOQ ≤ + <5%)
same,AX: anxiolytic (probability of activity signature),+++ (25% ≤ +++ <50%)
same,CE: cognitive enhancer (probability of activity signature),++ (5% ≤ ++ <25%)
same,DP: anti-depressant (probability of activity signature),++ (5% ≤ ++ <25%)
same,MS: mood stabilizer (probability of activity signature),++ (5% ≤ ++ <25%)
same,PS: anti-psychotic (probability of activity signature),++ (5% ≤ ++ <25%)
same,SD: sedative hypnotic (probability of activity signature),+ (LOQ ≤ + <5%)
same,UN: uncharacterized CNS activity (probability of activity signature),+++ (25% ≤ +++ <50%)
Cc1ccc2c(c1)[C@H](N)[C@@H](C(C)C)OC2 [Example 210],minimal effective dose,3 to 10 mg/kg
same,AD: ADHD (probability of activity signature),+ (LOQ ≤ + <5%)
same,AG: analgesic (probability of activity signature),++ (5% ≤ ++ <25%)
same,AX: anxiolytic (probability of activity signature),++ (5% ≤ ++ <25%)
same,CE: cognitive enhancer (probability of activity signature),++ (5% ≤ ++ <25%)
same,DP: anti-depressant (probability of activity signature),+ (LOQ ≤ + <5%)
same,MS: mood stabilizer (probability of activity signature),+ (LOQ ≤ + <5%)
same,PS: anti-psychotic (probability of activity signature),+ (LOQ ≤ + <5%)
same,SD: sedative hypnotic (probability of activity signature),+ (LOQ ≤ + <5%)
same,UN: uncharacterized CNS activity (probability of activity signature),++++ (50% ≤ ++++)
